Laboratory results taken from ChEMBL document CHEMBL3885881, “DrugMatrix”.

Organism: Rattus norvegicus
Assay: DrugMatrix - Regimen: Daily Repeat
Type: toxicity, organism-based, Sprague-Dawley
Set-up: regimen Daily Repeat, gender Male, age 6-8 weeks
Conditions: in vivo, po, route oral GAVAGE, vehicle .5 % CMC; for BASOPHIL / EOSINOPHIL / ERYTHROCYTE COUNT / HEMATOCRIT / HEMOGLOBIN / LEUKOCYTE COUNT / LYMPHOCYTE / MEAN CORPUSCULAR HEMOGLOBIN / MEAN CORPUSCULAR HEMOGLOBIN CONCENTRATION / MEAN CORPUSCULAR VOLUME / MONOCYTE / NEUTROPHIL / PLATELET COUNT: tissue Blood; for ALANINE AMINOTRANSFERASE / ALBUMIN / ALKALINE PHOSPHATASE / ASPARTATE AMINOTRANSFERASE / BLOOD UREA NITROGEN / CHLORIDE / CHOLESTEROL / CREATINE PHOSPHOKINASE / CREATININE / GLUCOSE / PHOSPHORUS / POTASSIUM / SODIUM / TOTAL BILIRUBIN / TOTAL PROTEIN: tissue Plasma
[1] = 0 mg/kg, 72 h, dose level Control, time 3 day
[2] = 0 mg/kg, 120 h, dose level Control, time 5 day
[3] = 36 mg/kg, 72 h, dose level Low, time 3 day
[4] = 36 mg/kg, 120 h, dose level Low, time 5 day

CCCCc1oc2ccccc2c1C(=O)c1cc(I)c(OCCN(CC)CC)c(I)c1 [AMIODARONE]
BASOPHIL [1]: 0% | EOSINOPHIL [1]: 0% | ERYTHROCYTE COUNT [1]: 6.19 x10E6/uL | HEMATOCRIT [1]: 36.94% | HEMOGLOBIN [1]: 14.58 G/DL | LEUKOCYTE COUNT [1]: 11.54 x10E3/uL | LYMPHOCYTE [1]: 84.8% | MEAN CORPUSCULAR HEMOGLOBIN [1]: 23.58 pg | MEAN CORPUSCULAR HEMOGLOBIN CONCENTRATION [1]: 39.44 G/DL | MEAN CORPUSCULAR VOLUME [1]: 59.76 fL | MONOCYTE [1]: 1.4% | NEUTROPHIL [1]: 13.8% | PLATELET COUNT [1]: 1068.8 x10E3/uL | ALANINE AMINOTRANSFERASE [1]: 38.17 u/L | ALBUMIN [1]: 3.88 G/DL | ALKALINE PHOSPHATASE [1]: 391.33 u/L | ASPARTATE AMINOTRANSFERASE [1]: 69.83 u/L | BLOOD UREA NITROGEN [1]: 15 mg/dL | CHLORIDE [1]: 104.17 MEQ/L | CHOLESTEROL [1]: 72.17 mg/dL | CREATINE PHOSPHOKINASE [1]: 174.33 u/L | CREATININE [1]: 0.58 mg/dL | GLUCOSE [1]: 192.67 mg/dL | PHOSPHORUS [1]: 10.52 mg/dL | POTASSIUM [1]: 6.8 MEQ/L | SODIUM [1]: 149.67 MEQ/L | TOTAL BILIRUBIN [1]: 0.78 mg/dL | TOTAL PROTEIN [1]: 6.28 G/DL | BASOPHIL [2]: 0% | EOSINOPHIL [2]: 0.17% | ERYTHROCYTE COUNT [2]: 6.72 x10E6/uL | HEMATOCRIT [2]: 40.02% | HEMOGLOBIN [2]: 15.83 G/DL | LEUKOCYTE COUNT [2]: 9.5 x10E3/uL | LYMPHOCYTE [2]: 87.17% | MEAN CORPUSCULAR HEMOGLOBIN [2]: 23.57 pg | MEAN CORPUSCULAR HEMOGLOBIN CONCENTRATION [2]: 39.62 G/DL | MEAN CORPUSCULAR VOLUME [2]: 59.55 fL | MONOCYTE [2]: 1.67% | NEUTROPHIL [2]: 11% | PLATELET COUNT [2]: 1053.67 x10E3/uL | ALANINE AMINOTRANSFERASE [2]: 26.33 u/L | ALBUMIN [2]: 4.02 G/DL | ALKALINE PHOSPHATASE [2]: 316.67 u/L | ASPARTATE AMINOTRANSFERASE [2]: 61.33 u/L | BLOOD UREA NITROGEN [2]: 18.67 mg/dL | CHLORIDE [2]: 108 MEQ/L | CHOLESTEROL [2]: 65.17 mg/dL | CREATINE PHOSPHOKINASE [2]: 161.17 u/L | CREATININE [2]: 0.75 mg/dL | GLUCOSE [2]: 177.33 mg/dL | PHOSPHORUS [2]: 9.72 mg/dL | POTASSIUM [2]: 6.18 MEQ/L | SODIUM [2]: 150.5 MEQ/L | TOTAL BILIRUBIN [2]: 0.68 mg/dL | TOTAL PROTEIN [2]: 6.55 G/DL | BASOPHIL [3]: 0% | EOSINOPHIL [3]: 0% | ERYTHROCYTE COUNT [3]: 6.18 x10E6/uL | HEMATOCRIT [3]: 36.8% | HEMOGLOBIN [3]: 14.4 G/DL | LEUKOCYTE COUNT [3]: 12.87 x10E3/uL | LYMPHOCYTE [3]: 77% | MEAN CORPUSCULAR HEMOGLOBIN [3]: 23.4 pg | MEAN CORPUSCULAR HEMOGLOBIN CONCENTRATION [3]: 39.13 G/DL | MEAN CORPUSCULAR VOLUME [3]: 59.8 fL | MONOCYTE [3]: 2.67% | NEUTROPHIL [3]: 20.33% | PLATELET COUNT [3]: 1095 x10E3/uL | ALANINE AMINOTRANSFERASE [3]: 33 u/L | ALBUMIN [3]: 3.77 G/DL | ALKALINE PHOSPHATASE [3]: 365.33 u/L | ASPARTATE AMINOTRANSFERASE [3]: 56.33 u/L | BLOOD UREA NITROGEN [3]: 15 mg/dL | CHLORIDE [3]: 103.67 MEQ/L | CHOLESTEROL [3]: 84.33 mg/dL | CREATINE PHOSPHOKINASE [3]: 134.67 u/L | CREATININE [3]: 0.7 mg/dL | GLUCOSE [3]: 159.33 mg/dL | PHOSPHORUS [3]: 11.13 mg/dL | POTASSIUM [3]: 6.63 MEQ/L | SODIUM [3]: 148.67 MEQ/L | TOTAL BILIRUBIN [3]: 0.7 mg/dL | TOTAL PROTEIN [3]: 6.13 G/DL | BASOPHIL [4]: 0% | EOSINOPHIL [4]: 0.33% | ERYTHROCYTE COUNT [4]: 6.73 x10E6/uL | HEMATOCRIT [4]: 39.47% | HEMOGLOBIN [4]: 15.6 G/DL | LEUKOCYTE COUNT [4]: 11.67 x10E3/uL | LYMPHOCYTE [4]: 86.33% | MEAN CORPUSCULAR HEMOGLOBIN [4]: 23.27 pg | MEAN CORPUSCULAR HEMOGLOBIN CONCENTRATION [4]: 39.63 G/DL | MEAN CORPUSCULAR VOLUME [4]: 58.73 fL | MONOCYTE [4]: 2% | NEUTROPHIL [4]: 11.33% | PLATELET COUNT [4]: 1213.67 x10E3/uL | ALANINE AMINOTRANSFERASE [4]: 26 u/L | ALBUMIN [4]: 3.93 G/DL | ALKALINE PHOSPHATASE [4]: 392.33 u/L | ASPARTATE AMINOTRANSFERASE [4]: 57.67 u/L | BLOOD UREA NITROGEN [4]: 14.67 mg/dL | CHLORIDE [4]: 106.67 MEQ/L | CHOLESTEROL [4]: 88 mg/dL | CREATINE PHOSPHOKINASE [4]: 148.33 u/L | CREATININE [4]: 0.7 mg/dL | GLUCOSE [4]: 154.67 mg/dL | PHOSPHORUS [4]: 10.83 mg/dL | POTASSIUM [4]: 6.67 MEQ/L | SODIUM [4]: 150.33 MEQ/L | TOTAL BILIRUBIN [4]: 0.93 mg/dL | TOTAL PROTEIN [4]: 6.6 G/DL
